# From ChEMBL document CHEMBL1629537, “Non-natural macrocyclic inhibitors of histone deacetylases: design, synthesis, and activity” (J Med Chem, 2010)
# Columns and labels:
# [1] = biological target: T1, Protein deacetylase HDAC6 (Homo sapiens, UniProt Q9UBN7); assay: Inhibition of human HDAC6 by fluorimetric assay
# T1 sequence (Q9UBN7 whole entry): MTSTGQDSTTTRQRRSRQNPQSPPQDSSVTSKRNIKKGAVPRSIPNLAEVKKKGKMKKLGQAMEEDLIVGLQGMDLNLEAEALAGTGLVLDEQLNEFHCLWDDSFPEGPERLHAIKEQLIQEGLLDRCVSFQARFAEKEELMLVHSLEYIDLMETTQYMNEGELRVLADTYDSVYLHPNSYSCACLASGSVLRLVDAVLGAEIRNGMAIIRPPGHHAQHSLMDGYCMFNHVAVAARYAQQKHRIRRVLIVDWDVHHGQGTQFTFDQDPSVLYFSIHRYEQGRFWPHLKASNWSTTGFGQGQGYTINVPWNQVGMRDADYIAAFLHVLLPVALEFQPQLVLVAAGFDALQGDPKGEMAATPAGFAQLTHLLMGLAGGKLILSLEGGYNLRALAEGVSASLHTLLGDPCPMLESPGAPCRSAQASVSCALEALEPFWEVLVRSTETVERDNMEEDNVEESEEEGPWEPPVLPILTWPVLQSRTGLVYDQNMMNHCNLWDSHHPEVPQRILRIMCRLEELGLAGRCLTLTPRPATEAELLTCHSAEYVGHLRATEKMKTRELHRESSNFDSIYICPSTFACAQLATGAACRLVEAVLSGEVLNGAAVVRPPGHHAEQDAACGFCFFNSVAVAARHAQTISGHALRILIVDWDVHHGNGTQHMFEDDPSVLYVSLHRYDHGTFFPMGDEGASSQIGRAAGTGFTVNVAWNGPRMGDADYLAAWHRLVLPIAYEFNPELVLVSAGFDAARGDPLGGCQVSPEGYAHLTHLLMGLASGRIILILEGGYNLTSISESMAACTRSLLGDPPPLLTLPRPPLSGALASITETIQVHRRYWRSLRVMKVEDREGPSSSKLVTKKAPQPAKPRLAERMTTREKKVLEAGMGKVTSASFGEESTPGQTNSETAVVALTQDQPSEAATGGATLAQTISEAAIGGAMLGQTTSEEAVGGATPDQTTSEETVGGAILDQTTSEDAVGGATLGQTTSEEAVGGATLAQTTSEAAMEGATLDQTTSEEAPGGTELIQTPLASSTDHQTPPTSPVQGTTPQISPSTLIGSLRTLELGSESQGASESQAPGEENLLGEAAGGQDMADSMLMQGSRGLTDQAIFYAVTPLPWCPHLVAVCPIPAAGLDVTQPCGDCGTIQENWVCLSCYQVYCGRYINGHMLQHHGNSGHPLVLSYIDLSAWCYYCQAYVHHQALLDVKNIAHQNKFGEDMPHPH
# [2] = biological target: Histone deacetylase 9 (Homo sapiens, UniProt Q9UKV0); assay: Inhibition of human HDAC9 by fluorimetric assay
# Histone deacetylase 9, sequence (Q9UKV0 whole entry): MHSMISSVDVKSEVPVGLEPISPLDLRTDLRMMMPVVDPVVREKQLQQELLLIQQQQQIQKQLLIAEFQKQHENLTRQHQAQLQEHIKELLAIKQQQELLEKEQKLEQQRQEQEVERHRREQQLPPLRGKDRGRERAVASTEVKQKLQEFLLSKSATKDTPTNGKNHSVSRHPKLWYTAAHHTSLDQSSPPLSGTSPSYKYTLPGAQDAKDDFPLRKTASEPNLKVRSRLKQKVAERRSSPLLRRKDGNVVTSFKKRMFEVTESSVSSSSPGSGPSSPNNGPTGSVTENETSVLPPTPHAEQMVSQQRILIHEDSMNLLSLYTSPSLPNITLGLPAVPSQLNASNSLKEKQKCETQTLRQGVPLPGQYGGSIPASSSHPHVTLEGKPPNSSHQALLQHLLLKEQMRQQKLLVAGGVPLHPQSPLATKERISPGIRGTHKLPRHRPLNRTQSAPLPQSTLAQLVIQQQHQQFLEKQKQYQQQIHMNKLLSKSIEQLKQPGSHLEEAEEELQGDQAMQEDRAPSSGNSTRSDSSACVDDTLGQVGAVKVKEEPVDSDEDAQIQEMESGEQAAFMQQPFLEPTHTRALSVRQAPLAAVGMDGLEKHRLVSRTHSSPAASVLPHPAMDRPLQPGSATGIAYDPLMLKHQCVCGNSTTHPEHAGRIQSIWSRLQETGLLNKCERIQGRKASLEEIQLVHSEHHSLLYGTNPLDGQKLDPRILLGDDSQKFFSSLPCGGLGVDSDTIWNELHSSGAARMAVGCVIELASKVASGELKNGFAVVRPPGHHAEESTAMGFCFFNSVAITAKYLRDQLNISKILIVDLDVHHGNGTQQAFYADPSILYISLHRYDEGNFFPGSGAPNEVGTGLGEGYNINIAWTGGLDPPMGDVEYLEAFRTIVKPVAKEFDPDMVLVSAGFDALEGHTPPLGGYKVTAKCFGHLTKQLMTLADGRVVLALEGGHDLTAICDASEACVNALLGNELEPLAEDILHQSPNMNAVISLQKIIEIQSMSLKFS
# [3] = tested on: NCI-H460; assay: cells; format: functional, cell-based; details: Homo sapiens, NCI-H460, 48 h
# [4] = tested on: HCT-116; assay: cells; format: functional, cell-based; details: Homo sapiens, HCT-116, 48 h
# [5] = biological target: T2, Histone deacetylase 7 (Homo sapiens, UniProt Q8WUI4); assay: Inhibition of human HDAC7 by fluorimetric assay
# T2 sequence (Q8WUI4 whole entry): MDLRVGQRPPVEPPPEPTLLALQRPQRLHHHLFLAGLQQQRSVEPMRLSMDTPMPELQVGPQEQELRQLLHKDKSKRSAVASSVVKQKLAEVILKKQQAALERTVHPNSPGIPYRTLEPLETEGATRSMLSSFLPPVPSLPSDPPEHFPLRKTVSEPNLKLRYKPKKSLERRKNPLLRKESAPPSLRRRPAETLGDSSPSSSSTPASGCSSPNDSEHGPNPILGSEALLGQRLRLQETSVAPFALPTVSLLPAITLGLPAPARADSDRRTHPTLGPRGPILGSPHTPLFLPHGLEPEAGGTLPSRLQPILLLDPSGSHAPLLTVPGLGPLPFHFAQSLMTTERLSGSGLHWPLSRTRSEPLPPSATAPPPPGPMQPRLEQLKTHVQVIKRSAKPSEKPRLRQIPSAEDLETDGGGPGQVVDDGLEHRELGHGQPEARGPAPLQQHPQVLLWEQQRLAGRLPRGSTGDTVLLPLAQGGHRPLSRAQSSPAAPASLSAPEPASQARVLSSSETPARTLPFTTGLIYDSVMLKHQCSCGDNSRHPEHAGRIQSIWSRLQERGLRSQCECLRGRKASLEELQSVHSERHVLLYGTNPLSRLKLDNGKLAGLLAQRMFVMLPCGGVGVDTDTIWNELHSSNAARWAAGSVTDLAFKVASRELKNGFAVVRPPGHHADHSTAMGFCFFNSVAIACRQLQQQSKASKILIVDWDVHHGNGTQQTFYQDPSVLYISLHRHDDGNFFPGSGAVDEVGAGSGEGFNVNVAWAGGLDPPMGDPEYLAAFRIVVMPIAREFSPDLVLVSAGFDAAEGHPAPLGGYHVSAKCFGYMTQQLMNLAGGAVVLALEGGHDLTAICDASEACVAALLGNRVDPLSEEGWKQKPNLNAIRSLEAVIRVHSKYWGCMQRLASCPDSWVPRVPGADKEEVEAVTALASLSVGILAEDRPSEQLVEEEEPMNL
# [6] = biological target: Histone deacetylase 3 (Homo sapiens, UniProt O15379)
# Histone deacetylase 3, sequence (O15379 whole entry): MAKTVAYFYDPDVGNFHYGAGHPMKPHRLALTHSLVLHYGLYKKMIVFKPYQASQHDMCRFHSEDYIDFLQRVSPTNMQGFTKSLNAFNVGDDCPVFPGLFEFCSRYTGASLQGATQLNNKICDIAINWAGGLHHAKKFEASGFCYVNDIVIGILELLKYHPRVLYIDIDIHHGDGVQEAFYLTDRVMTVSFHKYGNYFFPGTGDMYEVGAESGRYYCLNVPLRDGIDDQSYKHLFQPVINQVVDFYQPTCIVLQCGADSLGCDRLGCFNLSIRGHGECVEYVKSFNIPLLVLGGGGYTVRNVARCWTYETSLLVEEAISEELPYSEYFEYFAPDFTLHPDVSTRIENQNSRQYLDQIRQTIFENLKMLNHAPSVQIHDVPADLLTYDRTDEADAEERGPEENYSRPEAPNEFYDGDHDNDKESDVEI
# [7] = biological target: Histone deacetylase 1 (Homo sapiens, UniProt Q13547); assay: Inhibition of human HDAC1 by fluorimetric assay
# Histone deacetylase 1, sequence (Q13547 whole entry): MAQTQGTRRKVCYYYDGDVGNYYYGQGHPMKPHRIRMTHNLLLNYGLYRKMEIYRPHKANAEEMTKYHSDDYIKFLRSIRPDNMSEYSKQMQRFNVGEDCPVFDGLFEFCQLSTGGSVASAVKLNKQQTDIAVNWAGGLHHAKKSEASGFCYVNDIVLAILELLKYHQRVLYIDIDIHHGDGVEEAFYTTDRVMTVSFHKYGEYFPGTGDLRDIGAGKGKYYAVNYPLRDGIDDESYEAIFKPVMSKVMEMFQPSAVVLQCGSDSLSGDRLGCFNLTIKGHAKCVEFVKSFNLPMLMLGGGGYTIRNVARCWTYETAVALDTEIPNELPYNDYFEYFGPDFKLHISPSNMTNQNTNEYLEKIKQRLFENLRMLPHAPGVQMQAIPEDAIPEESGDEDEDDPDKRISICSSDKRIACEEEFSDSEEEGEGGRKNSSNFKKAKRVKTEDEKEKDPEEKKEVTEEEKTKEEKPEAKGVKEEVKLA
# [8] = biological target: T3, Histone deacetylase 8 (Homo sapiens, UniProt Q9BY41); assay: Inhibition of human HDAC8 by fluorimetric assay
# T3 sequence (Q9BY41 whole entry): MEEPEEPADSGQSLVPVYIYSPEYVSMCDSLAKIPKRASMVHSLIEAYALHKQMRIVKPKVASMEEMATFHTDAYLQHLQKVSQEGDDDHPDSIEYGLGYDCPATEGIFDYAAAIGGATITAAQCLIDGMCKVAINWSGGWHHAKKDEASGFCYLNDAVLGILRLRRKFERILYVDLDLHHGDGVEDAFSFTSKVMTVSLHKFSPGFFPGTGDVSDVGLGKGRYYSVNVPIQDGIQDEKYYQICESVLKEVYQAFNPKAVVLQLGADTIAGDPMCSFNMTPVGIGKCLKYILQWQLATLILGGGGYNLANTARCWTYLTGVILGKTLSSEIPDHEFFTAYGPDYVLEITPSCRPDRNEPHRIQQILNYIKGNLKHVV
# [9] = biological target: Histone deacetylase 2 (Homo sapiens, UniProt Q92769)
# Histone deacetylase 2, sequence (Q92769 whole entry): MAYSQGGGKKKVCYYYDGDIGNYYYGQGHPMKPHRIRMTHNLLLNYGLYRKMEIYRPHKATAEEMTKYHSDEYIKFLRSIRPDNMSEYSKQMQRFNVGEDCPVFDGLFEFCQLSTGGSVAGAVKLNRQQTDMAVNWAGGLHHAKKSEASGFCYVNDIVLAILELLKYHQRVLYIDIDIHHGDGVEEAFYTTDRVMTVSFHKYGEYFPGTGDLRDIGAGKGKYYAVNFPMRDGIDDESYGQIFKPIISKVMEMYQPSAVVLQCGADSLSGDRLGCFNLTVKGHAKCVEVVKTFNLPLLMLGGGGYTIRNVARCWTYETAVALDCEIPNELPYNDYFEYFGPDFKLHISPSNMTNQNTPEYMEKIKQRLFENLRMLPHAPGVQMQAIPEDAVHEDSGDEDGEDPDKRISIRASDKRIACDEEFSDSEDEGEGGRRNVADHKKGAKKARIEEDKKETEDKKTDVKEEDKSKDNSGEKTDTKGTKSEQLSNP
# [10] = biological target: Histone deacetylase 5 (Homo sapiens, UniProt Q9UQL6); assay: Inhibition of human HDAC5 by fluorimetric assay
# Histone deacetylase 5, sequence (Q9UQL6 whole entry): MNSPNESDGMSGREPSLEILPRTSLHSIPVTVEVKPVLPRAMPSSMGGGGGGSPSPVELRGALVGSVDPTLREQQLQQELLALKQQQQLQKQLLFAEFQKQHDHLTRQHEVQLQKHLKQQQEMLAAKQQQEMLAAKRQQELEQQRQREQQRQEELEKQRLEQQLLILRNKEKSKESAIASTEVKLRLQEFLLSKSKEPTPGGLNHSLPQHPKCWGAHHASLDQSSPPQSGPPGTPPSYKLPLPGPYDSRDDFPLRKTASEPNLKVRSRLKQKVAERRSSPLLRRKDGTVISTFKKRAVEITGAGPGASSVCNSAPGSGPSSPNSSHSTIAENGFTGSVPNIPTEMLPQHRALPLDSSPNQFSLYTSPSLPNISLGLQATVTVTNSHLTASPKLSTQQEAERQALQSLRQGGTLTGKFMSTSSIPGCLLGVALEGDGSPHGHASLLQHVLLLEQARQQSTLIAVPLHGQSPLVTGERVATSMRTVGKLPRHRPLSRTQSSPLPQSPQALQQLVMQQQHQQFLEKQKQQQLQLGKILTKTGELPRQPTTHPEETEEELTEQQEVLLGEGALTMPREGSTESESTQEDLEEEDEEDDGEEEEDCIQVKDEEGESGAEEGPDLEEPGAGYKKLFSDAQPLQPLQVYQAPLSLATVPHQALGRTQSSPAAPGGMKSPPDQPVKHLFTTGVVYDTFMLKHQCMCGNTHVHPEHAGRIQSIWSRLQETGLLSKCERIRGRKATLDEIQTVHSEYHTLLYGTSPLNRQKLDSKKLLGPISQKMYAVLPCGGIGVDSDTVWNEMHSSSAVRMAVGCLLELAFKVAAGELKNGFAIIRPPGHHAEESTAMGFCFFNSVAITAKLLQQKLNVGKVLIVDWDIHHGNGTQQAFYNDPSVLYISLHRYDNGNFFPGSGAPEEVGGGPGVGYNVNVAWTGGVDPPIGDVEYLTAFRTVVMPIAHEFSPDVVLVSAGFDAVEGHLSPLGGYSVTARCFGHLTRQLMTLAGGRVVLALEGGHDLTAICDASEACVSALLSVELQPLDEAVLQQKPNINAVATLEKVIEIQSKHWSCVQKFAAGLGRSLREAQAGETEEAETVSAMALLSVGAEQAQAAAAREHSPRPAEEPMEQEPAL
# [11] = biological target: T4, Histone deacetylase 11 (Homo sapiens, UniProt Q96DB2); assay: Inhibition of human HDAC11 by fluorimetric assay
# T4 sequence (Q96DB2 whole entry): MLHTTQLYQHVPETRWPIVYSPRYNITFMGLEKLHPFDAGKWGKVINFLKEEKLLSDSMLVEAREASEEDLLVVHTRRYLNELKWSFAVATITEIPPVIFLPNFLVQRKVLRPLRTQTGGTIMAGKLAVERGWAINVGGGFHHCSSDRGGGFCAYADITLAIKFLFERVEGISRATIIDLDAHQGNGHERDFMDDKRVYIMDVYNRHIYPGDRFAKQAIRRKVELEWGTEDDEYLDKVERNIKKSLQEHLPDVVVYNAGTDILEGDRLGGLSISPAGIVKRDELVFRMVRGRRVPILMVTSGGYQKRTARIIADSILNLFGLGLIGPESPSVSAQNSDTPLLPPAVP
# [12] = biological target: Histone deacetylase 4 (Homo sapiens, UniProt P56524); assay: Inhibition of human HDAC4 by fluorimetric assay
# Histone deacetylase 4, sequence (P56524 whole entry): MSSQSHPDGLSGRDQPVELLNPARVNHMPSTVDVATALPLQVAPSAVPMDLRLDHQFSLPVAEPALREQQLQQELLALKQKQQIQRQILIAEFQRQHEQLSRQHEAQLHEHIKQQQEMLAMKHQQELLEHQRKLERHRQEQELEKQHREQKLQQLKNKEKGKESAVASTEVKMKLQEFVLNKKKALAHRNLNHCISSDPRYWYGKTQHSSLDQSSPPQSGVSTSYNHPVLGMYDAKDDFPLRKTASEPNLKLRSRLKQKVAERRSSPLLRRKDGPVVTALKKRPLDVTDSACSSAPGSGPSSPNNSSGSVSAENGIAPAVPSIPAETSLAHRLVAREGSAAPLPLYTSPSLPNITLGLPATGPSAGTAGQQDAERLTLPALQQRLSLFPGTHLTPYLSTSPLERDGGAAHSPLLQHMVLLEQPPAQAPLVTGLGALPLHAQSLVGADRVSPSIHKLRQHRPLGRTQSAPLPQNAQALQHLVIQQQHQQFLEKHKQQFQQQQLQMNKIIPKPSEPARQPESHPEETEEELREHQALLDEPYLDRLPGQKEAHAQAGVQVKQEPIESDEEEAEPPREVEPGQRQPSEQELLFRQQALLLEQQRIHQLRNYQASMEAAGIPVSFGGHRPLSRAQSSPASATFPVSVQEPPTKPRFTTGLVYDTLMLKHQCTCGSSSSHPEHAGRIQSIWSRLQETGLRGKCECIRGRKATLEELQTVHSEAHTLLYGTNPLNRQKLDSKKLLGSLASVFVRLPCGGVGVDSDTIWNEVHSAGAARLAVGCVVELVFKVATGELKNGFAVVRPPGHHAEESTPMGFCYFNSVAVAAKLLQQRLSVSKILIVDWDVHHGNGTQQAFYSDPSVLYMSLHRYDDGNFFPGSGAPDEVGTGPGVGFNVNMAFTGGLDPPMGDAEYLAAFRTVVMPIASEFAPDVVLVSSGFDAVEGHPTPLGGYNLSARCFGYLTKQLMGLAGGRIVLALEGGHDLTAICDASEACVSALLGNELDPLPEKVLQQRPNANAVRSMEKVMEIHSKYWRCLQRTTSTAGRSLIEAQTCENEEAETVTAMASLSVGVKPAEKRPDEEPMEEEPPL
# [13] = biological target: T5, Polyamine deacetylase HDAC10 (Homo sapiens, UniProt Q969S8); assay: Inhibition of human HDAC10 by fluorimetric assay
# T5 sequence (Q969S8 whole entry): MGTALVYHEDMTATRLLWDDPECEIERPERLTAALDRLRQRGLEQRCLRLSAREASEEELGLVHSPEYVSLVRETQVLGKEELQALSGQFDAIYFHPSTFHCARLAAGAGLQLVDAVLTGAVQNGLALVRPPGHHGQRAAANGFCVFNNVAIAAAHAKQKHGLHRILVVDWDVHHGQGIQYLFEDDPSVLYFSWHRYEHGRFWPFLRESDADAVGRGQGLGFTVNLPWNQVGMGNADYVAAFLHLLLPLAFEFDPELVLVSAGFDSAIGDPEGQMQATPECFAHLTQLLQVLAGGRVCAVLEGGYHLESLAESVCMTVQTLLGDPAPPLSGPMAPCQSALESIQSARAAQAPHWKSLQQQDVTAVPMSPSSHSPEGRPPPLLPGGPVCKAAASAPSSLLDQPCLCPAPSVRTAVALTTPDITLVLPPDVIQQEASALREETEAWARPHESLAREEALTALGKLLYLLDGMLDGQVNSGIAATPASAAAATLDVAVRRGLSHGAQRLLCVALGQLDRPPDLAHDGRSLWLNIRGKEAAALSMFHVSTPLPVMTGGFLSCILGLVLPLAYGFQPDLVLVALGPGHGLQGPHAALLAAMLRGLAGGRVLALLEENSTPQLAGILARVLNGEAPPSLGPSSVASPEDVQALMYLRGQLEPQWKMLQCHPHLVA
SMILES,IC50 [1],IC50 [2],IC50 [3],IC50 [4],IC50 [5],IC50 [6],IC50 [7],IC50 [8],IC50 [9],IC50 [10],IC50 [11],IC50 [12],IC50 [13]
COc1cc2cc(c1)COc1ccccc1NC(=O)[C@H](CCCCCC(=O)NO)OC/C=C\2,0.84 nM,60.6 nM,1050 nM,690 nM,27.8 nM,55.7 nM,31.7 nM,198 nM,158 nM,62.2 nM,22.9 nM,79.4 nM,62.5 nM
COc1cc2cc(c1)COc1ccccc1NC(=O)[C@@H](CCCCCC(=O)NO)OC/C=C\2,10.2 nM,302 nM,820 nM,640 nM,180 nM,89 nM,78.1 nM,206 nM,382 nM,155 nM,97.1 nM,284 nM,152 nM
COc1cc2cc(c1)COc1ccccc1NC(=O)[C@H](CCCCCC(=O)NO)OCCC2,3.43 nM,123 nM,740 nM,520 nM,–,93.6 nM,72.2 nM,136 nM,268 nM,109 nM,103 nM,118 nM,190 nM
COc1cc2cc(c1)COc1ccccc1NC(=O)[C@@H](CCCCCC(=O)NO)OCCC2,3.92 nM,322 nM,680 nM,850 nM,–,94.5 nM,102 nM,90.7 nM,425 nM,150 nM,174 nM,454 nM,200 nM
O=C(CCCCCC1OCCCCCOc2ccccc2NC1=O)NO (racemic),15.6 nM,1900 nM,2000 nM,690 nM,1720 nM,369 nM,949 nM,643 nM,1930 nM,1340 nM,1210 nM,2580 nM,1530 nM
O=C(CCCCCC1OCCCCCCOc2ccccc2NC1=O)NO (racemic),10.1 nM,687 nM,1000 nM,580 nM,–,176 nM,560 nM,1100 nM,1570 nM,878 nM,564 nM,1200 nM,683 nM
O=C(CCCCCC1OCCCCCCCOc2ccccc2NC1=O)NO (racemic),9.38 nM,1040 nM,620 nM,350 nM,–,240 nM,439 nM,286 nM,1540 nM,695 nM,546 nM,1250 nM,958 nM
COc1cc2cc(c1)COc1ccccc1NC(=O)C(CCCCCC(=O)NO)OC/C=C\2 (racemic),1.97 nM,99.6 nM,880 nM,450 nM,72.6 nM,39.6 nM,30.7 nM,119 nM,207 nM,55.4 nM,57.7 nM,159 nM,70.7 nM
COc1cc2cc(c1)COc1ccccc1NC(=O)C(CCCCCC(=O)NO)OCCC2 (racemic),8.44 nM,336 nM,870 nM,690 nM,–,246 nM,204 nM,444 nM,793 nM,341 nM,226 nM,447 nM,320 nM
COc1ccc(COC(CCCCCC(=O)NO)C(=O)Nc2ccccc2)cc1 (racemic),20.1 nM,247 nM,–,–,–,131 nM,53.4 nM,331 nM,254 nM,134 nM,197 nM,648 nM,179 nM
O=C(/C=C/c1ccc(CN(CCO)CCc2c[nH]c3ccccc23)cc1)NO [DACINOSTAT],–,–,70 nM,18 nM,–,–,–,–,–,–,–,–,–
CC(/C=C/C(=O)NO)=C\[C@@H](C)C(=O)c1ccc(N(C)C)cc1 [TRICHOSTATIN],–,–,100 nM,43 nM,–,–,–,–,–,–,–,–,–
